Laboratory results from PMC6830212, “Crystal structure of the putative cyclase IdmH from the indanomycin nonribosomal peptide synthase/polyketide synthase” (IUCrJ, 2019).

B1: wild-type IdmH (full-length putative indane cyclase from the indanomycin NRPS/PKS pathway) (enzyme, UniProt C5HV10 1-145, looked up)
chain: MAHQPSDTIAGLYEAFNSGDLETLRELIAPDAVIHLPGTAGDAEHPPGTPRDREGWLGVWQFTQAFFPDMTATVQDIVQTGDLVATRCVARGTHSIEFMGVPPTGRPFEMTMLNMSRVRDGRIVEHWTISDNVTMLAQLGVKASL
notes: IdmH, Streptomyces antibioticus NRRL 8167, full-length idmH gene (ACN69984.1) amplified from genomic DNA; 145 amino acids as printed; Cloned in pET-28a at NdeI; residues of the thrombin site may remain at the N-terminus after cleavage (surmised); also called full-length IdmH; native IdmH; source: E. coli BL21(DE3), purified (HisTrap, thrombin cleavage, HiTrap Q, Superdex 75 SEC); not shown: His6, …

How the values were obtained:
IdmH = target: T1, IdmH (Streptomyces antibioticus, UniProt C5HV10); experiment: 1H-15N HSQC-TROSY chemical shift perturbation titration; type: binding; details: 0.2 mM 15N-labelled IdmH, 0-200 uM indanomycin; 20 mM Tris pH 7.3, 50 mM NaCl, 1 mM DTT, 25 C; proposed active-site pocket; proposed (not shown) reaction product
T1 construct: full length (145 residues), N-terminal His6 tag with thrombin site (pET-28a), E. coli BL21(DE3); homodimer

[1] = target: the molecule itself; experiment: SEC + other: LC/MS; oligomeric state of purified, tag-cleaved wild-type IdmH; conditions of this analysis not told in the text (Supplementary Fig. S4)

Molecule | 1H-15N HSQC-TROSY chemical shift perturbation titration (IdmH) | stoichiometry N [1]
CC/C(=C\C=C\[C@@H]1C=C[C@@H]2[C@@H](CC)CC[C@H]2[C@@H]1C(=O)c1ccc[nH]1)[C@@H]1O[C@@H]([C@@H](C)C(=O)O)CC[C@@H]1C [compound 1, indanomycin] | indanomycin can bind to IdmH in the proposed active site | –
B1 | – | 2
